In PubChem BioAssay (NCI):
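Each compound was tested at five concentrations against cells in 96-well plates for 48 hours. TGI is the concentration that stops growth completely.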

Legend:
Assay in all cases: NCI anticancer screen, dose series, 48 h
DMS 114 small cell lung = test system: DMS 114 small cell lung
DMS 273 small cell lung = test system: DMS 273 small cell lung
EKVX NSCLC = test system: EKVX NSCLC
HOP-62 NSCLC = test system: HOP-62 NSCLC
KM12 colon = test system: KM12 colon
KM20L2 colon = test system: KM20L2 colon
LOX IMVI melanoma = test system: LOX IMVI melanoma
LXFL 529 NSCLC = test system: LXFL 529 NSCLC
M19-MEL melanoma = test system: M19-MEL melanoma
OVCAR-5 ovarian = test system: OVCAR-5 ovarian
RPMI-8226 leukemia = test system: RPMI-8226 leukemia
SF-539 CNS = test system: SF-539 CNS
TK-10 renal = test system: TK-10 renal
U251 CNS = test system: U251 CNS
UACC-257 melanoma = test system: UACC-257 melanoma
XF 498 CNS = test system: XF 498 CNS
DLD-1 colon = test system: DLD-1 colon

| Compound | TGI (DMS 114 small cell lung) [µM] | TGI (DMS 273 small cell lung) [µM] | TGI (EKVX NSCLC) [µM] | TGI (HOP-62 NSCLC) [µM] | TGI (KM12 colon) [µM] | TGI (KM20L2 colon) [µM] | TGI (LOX IMVI melanoma) [µM] | TGI (LXFL 529 NSCLC) [µM] | TGI (M19-MEL melanoma) [µM] | TGI (OVCAR-5 ovarian) [µM] | TGI (RPMI-8226 leukemia) [µM] | TGI (SF-539 CNS) [µM] | TGI (TK-10 renal) [µM] | TGI (U251 CNS) [µM] | TGI (UACC-257 melanoma) [µM] | TGI (XF 498 CNS) [µM] | TGI (DLD-1 colon) [µM] |
| --- | --- | --- | --- | --- | --- | --- | --- | --- | --- | --- | --- | --- | --- | --- | --- | --- | --- |
| O=C1c2ccccc2OP(=O)(OCC(F)(F)F)OC1(C(F)(F)F)C(F)(F)F (stereo not given) | > 100 | > 100 | > 100 | > 100 | > 100 | > 100 | > 100 | > 100 | > 100 | > 100 | > 100 | > 100 | > 100 | > 100 | > 100 | > 100 | – |
| Nc1nc(SCc2ccc([N+](=O)[O-])cc2)nc2c1ncn2C1OC(CO)C(O)C1O (stereo not given) | > 100 | > 100 | > 100 | > 100 | > 100 | > 100 | > 100 | > 100 | > 100 | > 100 | > 100 | – | > 100 | > 100 | > 100 | > 100 | > 100 |
| COc1ccc(N=Cc2ccc(N(CCC#N)S(=O)(=O)c3ccccc3)cc2)cc1 | > 100 | > 100 | > 100 | > 100 | > 100 | > 100 | > 100 | > 100 | > 100 | > 100 | > 100 | > 100 | > 100 | > 100 | > 100 | > 100 | > 100 |
| C=CCNC(=O)N(CCCC(NC(C)=O)C(=O)NCc1ccccc1)Cc1ccccc1 (stereo not given) | > 100 | > 100 | > 100 | > 100 | > 100 | > 100 | > 100 | > 100 | > 100 | > 100 | > 100 | > 100 | > 100 | > 100 | > 100 | > 100 | – |
| Cc1ccc(N2C(=O)CS/C2=C(\C#N)c2nc3ccccc3[nH]2)cc1 | > 100 | > 100 | > 100 | > 100 | > 100 | > 100 | > 100 | > 100 | > 100 | > 100 | > 100 | > 100 | > 100 | > 100 | > 100 | > 100 | > 100 |
| CN1c2ccccc2N(C(=O)c2ccc(Cl)cc2)C(CC(=O)O)c2cccn21 (stereo not given) | > 100 | > 100 | > 100 | > 100 | > 100 | > 100 | > 100 | > 100 | > 100 | > 100 | > 100 | > 100 | > 100 | – | > 100 | > 100 | > 100 |
| CCC12CCCN(Cc3ccccc3)C1c1c(n(C)c3ccccc13)C(C(=O)OC)C2 (stereo not given) | > 239 | > 239 | > 239 | > 239 | > 239 | > 239 | > 239 | > 239 | > 239 | > 239 | > 239 | > 239 | > 239 | > 239 | 191 | 118 | > 239 |
